Source: US5561135A, “N,N,N',N'-tetrasubstituted-1,2-ethanediamine derivative compounds” (Ferrer Internacional, S.A., priority 1993, dated 1996)
Structures can show the parent of a compound that is named as a salt.

Tests used:
D2 receptors = D2 receptors (Rattus norvegicus, UniProt P61169); test: Specific binding to D2 receptors, [^3 H]spiperone displacement
σ receptors [1] = biological target: T1, σ receptors (Cavia porcellus, UniProt Q60492); test: Specific binding to σ receptors, (+)[^3 H]3-PPP displacement; design: species or system guinea-pig; details: for IC50: guinea-pig total brain membrane, 2 nM (+)[^3 H]3-PPP, 90 min, 25° C., pH 8.5
T1 construct: membrane corresponding to 40 mg of guinea-pig total brain; from tissue; host or cells: guinea-pig total brain membranes
Experimental: (§1) Thus, total binding of ligand to membranes was attained. Non-specific binding was then determined by adding a micromolar concentration of unlabelled 3-PPP.

σ receptors [2] = details: B. L. Largent et al, Eur. J. Pharmacol., 155, 345-7, 1988; cited from earlier work
[3] = Irwin test (behavioural and neurological undesirable effects); details: observed at first dose causing undesirable effects
Male Sprague-Dawley rats = test: Stereotypy inhibition test (apomorphine, rats); format: in vivo; details: Rattus norvegicus, ip; intraperitoneal; apomorphine 1.5 mg/kg subcutaneously after 30 min; scored 40-120 min
Experimental: Stereotypy inhibition test: Male Sprague-Dawley rats, weighing 200-300 g were used. The animals were weighed and then placed in individual transparent boxes. At time 0 the compounds to be tested were administered intraperitoneally. 0.25% agar was used as vehicle. […] At 40, 50, 60, 90 and 120 min, stereotypy was scored from (-) to (+++) according to the following criteria: (-) absence of stereotypy or any abnormal movement; (+) presence of slight stereotyped movements of the head and intermittent sniffing; (++) intense movements of the head, mild licking interspersed with sniffing; and (+++) intense licking and/or gnawing. Results are expressed as ED50 in mg/kg for a better quantification.

[4] = in vivo
σ receptors [5] = test: Specific binding to σ receptors, (+)[^3 H]3-PPP displacement; design: species or system guinea-pig
Experimental: as §1

T1 sequence (Q60492 whole entry): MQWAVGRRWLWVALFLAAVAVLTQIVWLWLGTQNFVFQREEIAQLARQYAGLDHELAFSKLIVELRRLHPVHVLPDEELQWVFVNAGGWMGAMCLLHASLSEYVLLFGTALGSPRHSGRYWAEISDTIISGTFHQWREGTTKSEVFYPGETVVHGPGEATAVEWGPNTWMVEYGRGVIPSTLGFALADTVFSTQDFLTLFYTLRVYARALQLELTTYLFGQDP
Sequence of D2 receptors (P61169 whole entry): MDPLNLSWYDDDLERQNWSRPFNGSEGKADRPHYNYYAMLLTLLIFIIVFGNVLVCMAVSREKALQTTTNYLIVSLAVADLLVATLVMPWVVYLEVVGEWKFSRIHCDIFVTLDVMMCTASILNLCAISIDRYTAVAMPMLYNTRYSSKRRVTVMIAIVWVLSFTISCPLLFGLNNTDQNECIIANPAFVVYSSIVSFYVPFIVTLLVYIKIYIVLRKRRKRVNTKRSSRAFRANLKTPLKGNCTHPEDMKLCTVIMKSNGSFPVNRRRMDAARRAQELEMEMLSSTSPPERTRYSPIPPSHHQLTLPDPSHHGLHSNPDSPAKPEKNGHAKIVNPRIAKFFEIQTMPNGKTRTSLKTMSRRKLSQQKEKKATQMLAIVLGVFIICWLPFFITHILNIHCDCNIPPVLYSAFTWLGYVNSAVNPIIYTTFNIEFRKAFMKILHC

Row | IC50 (D2 receptors) [µM] | IC50 (σ receptors [1]) [µM] | SMILES | also measured
1 | 0.41 | 0.00201 | CN(CCCC(=O)c1ccc(F)cc1)CCN(C)Cc1ccccc1 [Example 5, 4-[N-(2-(N'-benzyl,N'-methylamino)ethyl)-N-methylamino]-1-(p-fluorophenyl)-1-butanone dihydrochloride] | 
2 |  |  | O=C(CCCN1CCC(O)(c2ccc(Cl)cc2)CC1)c1ccc(F)cc1 [Haloperidol] | Receptor action (literature, in words) (σ receptors [2]): acts on both σ and D2 receptors; Side effects [3]: Hypothermia, Catalepsy.; ED50 (Male Sprague-Dawley rats): 0.4 mg/kg; First dose causing behavioural and neurological undesirable effects [4]: 10 mg/kg
3 | 81.8 | 0.029 | CN(CCCC(O)c1ccc(F)cc1)CCN(C)Cc1ccccc1 (centres unmarked) [Example 6, 4-[N-(2-(N'-benzyl, N'-methylamino)ethyl) -N-methylamino]-1-(p-fluorophenyl)-1-butanol dihydrochloride] | 
4 | 2.35 | 0.083 | CN(CCCC(c1ccc(F)cc1)c1ccc(F)cc1)CCN(C)Cc1ccc(F)cc1 [Example 9, N-(4,4-bis(p-fluorophnyl)butyl)-N,N'-dimethyl-N'-(p-fluorobenzyl)-1,2-ethanediamine dihydrochloride] | 
5 | 1.5 | 0.0146 | CN(CCCC(=O)c1ccc(F)cc1)CCN(C)c1ncccn1 [Example 12, 1-(p-fluorophenyl)-4-[N-[2-(N'-(2-pyrimidinyl)-N'-methyl-amino)ethyl]-N-methylamino]-1-butanone disulphate] | Relative selectivity (σ receptors [5]; D2 /σ ratio relative to Haloperidol): 21.5; Selectivity D2 /σ (σ receptors [5]; ratio of IC50 D2 (rat striatum) to IC50 σ (guinea-pig brain)): 103
6 | 0.678 | 0.00052 | CN(CCCC(=O)c1ccc(F)cc1)CCN(C)Cc1ccc(F)cc1 [Example 7, 1-(p-fluorophenyl)-4-[N-(2-(N'-(p-fluorobenzyl)-N'-methylamino)ethyl)-N-methylamino]-1-butanone dihydrochloride] | Activity on D2 receptors (in words) (D2 receptors): poorly active on D2 receptors; Binding to σ receptors (in words) (σ receptors [1]): more potent than Haloperidol
7 | 7.81 | 0.00279 | CN(CCCC(O)c1ccc(F)cc1)CCN(C)Cc1ccc(F)cc1 (centres unmarked) [Example 8, 1-(p-fluorophenyl)-4-[N-(2-(N'-(p-fluorobenzyl)-N'-methylamino)ethyl)-N-methanlamino]-1-butanol dihydrochloride] | 
